{
  "source": "ChEMBL document CHEMBL4251595",
  "about": "“Green approach for the synthesis of thiophenyl pyrazoles and isoxazoles by adopting 1,3-dipolar cycloaddition methodology and their antimicrobial activity” (2018)",
  "assay_type_in_all_cases": "functional",
  "key": {"[1]": {"tested_on": "Staphylococcus aureus", "assay": "Bactericidal activity against Staphylococcus aureus incubated for 24 hrs followed by replating on sterile nutrient broth and incubated for 24 hrs by broth dilution test"}, "[2]": {"tested_on": "Pseudomonas aeruginosa", "assay": "Antimicrobial activity against Pseudomonas aeruginosa assessed as zone of inhibition at 50 ug/well after 24 hrs by agar well diffusion method", "conditions": "read-out: DIZ"}, "[3]": {"tested_on": "Aspergillus niger", "assay": "Fungicidal activity against Aspergillus niger incubated for 48 hrs followed by replating on PDA and incubated for 48 hrs by broth dilution test"}, "[4]": {"tested_on": "Pseudomonas aeruginosa", "assay": "Antimicrobial activity against Pseudomonas aeruginosa assessed as zone of inhibition at 75 ug/well after 24 hrs by agar well diffusion method", "conditions": "read-out: DIZ"}, "[5]": {"tested_on": "Staphylococcus aureus", "assay": "Antimicrobial activity against Staphylococcus aureus assessed as zone of inhibition at 75 ug/well after 24 hrs by agar well diffusion method", "conditions": "read-out: DIZ"}, "[6]": {"tested_on": "Aspergillus niger", "assay": "Antifungal activity against Aspergillus niger assessed as zone of inhibition at 50 ug/well after 48 hrs by agar well diffusion method", "conditions": "read-out: DIZ"}, "[7]": {"tested_on": "Klebsiella pneumoniae", "assay": "Antimicrobial activity against Klebsiella pneumoniae assessed as zone of inhibition at 50 ug/well after 24 hrs by agar well diffusion method", "conditions": "read-out: DIZ"}, "[8]": {"tested_on": "Pseudomonas aeruginosa", "assay": "Bactericidal activity against Pseudomonas aeruginosa incubated for 24 hrs followed by replating on sterile nutrient broth and incubated for 24 hrs by broth dilution test"}, "[9]": {"tested_on": "Pseudomonas aeruginosa", "assay": "Antimicrobial activity against Pseudomonas aeruginosa assessed as zone of inhibition at 100 ug/well after 24 hrs by agar well diffusion method", "conditions": "read-out: DIZ"}, "[10]": {"tested_on": "Staphylococcus aureus", "assay": "Antimicrobial activity against Staphylococcus aureus assessed as zone of inhibition at 100 ug/well after 24 hrs by agar well diffusion method", "conditions": "read-out: DIZ"}, "[11]": {"tested_on": "Staphylococcus aureus", "assay": "Antimicrobial activity against Staphylococcus aureus assessed as zone of inhibition at 50 ug/well after 24 hrs by agar well diffusion method", "conditions": "read-out: DIZ"}, "[12]": {"tested_on": "Klebsiella pneumoniae", "assay": "Antimicrobial activity against Klebsiella pneumoniae assessed as zone of inhibition at 75 ug/well after 24 hrs by agar well diffusion method", "conditions": "read-out: DIZ"}, "[13]": {"tested_on": "Aspergillus niger", "assay": "Antifungal activity against Aspergillus niger assessed as zone of inhibition at 100 ug/well after 48 hrs by agar well diffusion method", "conditions": "read-out: DIZ"}, "[14]": {"tested_on": "Aspergillus niger", "assay": "Antifungal activity against Aspergillus niger assessed as zone of inhibition at 75 ug/well after 48 hrs by agar well diffusion method", "conditions": "read-out: DIZ"}, "[15]": {"tested_on": "Penicillium chrysogenum", "assay": "Antifungal activity against Penicillium chrysogenum assessed as zone of inhibition at 100 ug/well after 48 hrs by agar well diffusion method", "conditions": "read-out: DIZ"}, "[16]": {"tested_on": "Penicillium chrysogenum", "assay": "Fungicidal activity against Penicillium chrysogenum incubated for 48 hrs followed by replating on PDA and incubated for 48 hrs by broth dilution test"}, "[17]": {"tested_on": "Bacillus subtilis", "assay": "Antimicrobial activity against Bacillus subtilis assessed as zone of inhibition at 100 ug/well after 24 hrs by agar well diffusion method", "conditions": "read-out: DIZ"}, "[18]": {"tested_on": "Bacillus subtilis", "assay": "Antimicrobial activity against Bacillus subtilis after 24 hrs by broth dilution test"}, "[19]": {"tested_on": "Penicillium chrysogenum", "assay": "Antifungal activity against Penicillium chrysogenum assessed as zone of inhibition at 75 ug/well after 48 hrs by agar well diffusion method", "conditions": "read-out: DIZ"}, "[20]": {"tested_on": "Klebsiella pneumoniae", "assay": "Bactericidal activity against Klebsiella pneumoniae incubated for 24 hrs followed by replating on sterile nutrient broth and incubated for 24 hrs by broth dilution test"}, "[21]": {"tested_on": "Klebsiella pneumoniae", "assay": "Antimicrobial activity against Klebsiella pneumoniae after 24 hrs by broth dilution test"}, "[22]": {"tested_on": "Penicillium chrysogenum", "assay": "Antifungal activity against Penicillium chrysogenum assessed as zone of inhibition at 50 ug/well after 48 hrs by agar well diffusion method", "conditions": "read-out: DIZ"}, "[23]": {"tested_on": "Bacillus subtilis", "assay": "Antimicrobial activity against Bacillus subtilis assessed as zone of inhibition at 50 ug/well after 24 hrs by agar well diffusion method", "conditions": "read-out: DIZ"}, "[24]": {"tested_on": "Bacillus subtilis", "assay": "Antimicrobial activity against Bacillus subtilis assessed as zone of inhibition at 75 ug/well after 24 hrs by agar well diffusion method", "conditions": "read-out: DIZ"}, "[25]": {"tested_on": "Aspergillus niger", "assay": "Antifungal activity against Aspergillus niger after 48 hrs by broth dilution test"}, "[26]": {"tested_on": "Penicillium chrysogenum", "assay": "Antifungal activity against Penicillium chrysogenum after 48 hrs by broth dilution test"}, "[27]": {"tested_on": "Pseudomonas aeruginosa", "assay": "Antimicrobial activity against Pseudomonas aeruginosa after 24 hrs by broth dilution test"}, "[28]": {"tested_on": "Staphylococcus aureus", "assay": "Antimicrobial activity against Staphylococcus aureus after 24 hrs by broth dilution test"}, "[29]": {"tested_on": "Bacillus subtilis", "assay": "Bactericidal activity against Bacillus subtilis incubated for 24 hrs followed by replating on sterile nutrient broth and incubated for 24 hrs by broth dilution test"}, "[30]": {"tested_on": "Klebsiella pneumoniae", "assay": "Antimicrobial activity against Klebsiella pneumoniae assessed as zone of inhibition at 100 ug/well after 24 hrs by agar well diffusion method", "conditions": "read-out: DIZ"}},
  "data": [
    {"smiles": "O=C(NS(=O)(=O)/C=C/c1ccc([N+](=O)[O-])cc1)c1cccs1", "values": [
      {"measurement": "MBC", "setting": "[1]", "result": "> 200", "unit": "µg/mL"},
      {"measurement": "zone of inhibition at 50 µg/disc", "setting": "[2]", "result": 16, "unit": "mm"},
      {"measurement": "MFC", "setting": "[3]", "result": 100, "unit": "µg/mL"},
      {"measurement": "zone of inhibition at 75 µg/disc", "setting": "[4]", "result": 19, "unit": "mm"},
      {"measurement": "zone of inhibition at 75 µg/disc", "setting": "[5]", "result": 22, "unit": "mm"},
      {"measurement": "zone of inhibition at 50 µg/disc", "setting": "[6]", "result": 23, "unit": "mm"},
      {"measurement": "zone of inhibition at 50 µg/disc", "setting": "[7]", "result": 26, "unit": "mm"},
      {"measurement": "MBC", "setting": "[8]", "result": 100, "unit": "µg/mL"},
      {"measurement": "zone of inhibition at 100 µg/disc", "setting": "[9]", "result": 21, "unit": "mm"},
      {"measurement": "zone of inhibition at 100 µg/disc", "setting": "[10]", "result": 25, "unit": "mm"},
      {"measurement": "zone of inhibition at 50 µg/disc", "setting": "[11]", "result": 19, "unit": "mm"},
      {"measurement": "zone of inhibition at 75 µg/disc", "setting": "[12]", "result": 30, "unit": "mm"},
      {"measurement": "zone of inhibition at 100 µg/disc", "setting": "[13]", "result": 28, "unit": "mm"},
      {"measurement": "zone of inhibition at 75 µg/disc", "setting": "[14]", "result": 25, "unit": "mm"},
      {"measurement": "zone of inhibition at 100 µg/disc", "setting": "[15]", "result": 27, "unit": "mm"},
      {"measurement": "MFC", "setting": "[16]", "result": "> 200", "unit": "µg/mL"},
      {"measurement": "zone of inhibition at 100 µg/disc", "setting": "[17]", "result": 36, "unit": "mm"},
      {"measurement": "MIC", "setting": "[18]", "result": 12.5, "unit": "µg/mL"},
      {"measurement": "zone of inhibition at 75 µg/disc", "setting": "[19]", "result": 24, "unit": "mm"},
      {"measurement": "MBC", "setting": "[20]", "result": 200, "unit": "µg/mL"},
      {"measurement": "MIC", "setting": "[21]", "result": 50, "unit": "µg/mL"},
      {"measurement": "zone of inhibition at 50 µg/disc", "setting": "[22]", "result": 22, "unit": "mm"},
      {"measurement": "zone of inhibition at 50 µg/disc", "setting": "[23]", "result": 30, "unit": "mm"},
      {"measurement": "zone of inhibition at 75 µg/disc", "setting": "[24]", "result": 32, "unit": "mm"},
      {"measurement": "MIC", "setting": "[25]", "result": 25, "unit": "µg/mL"},
      {"measurement": "MIC", "setting": "[26]", "result": 100, "unit": "µg/mL"},
      {"measurement": "MIC", "setting": "[27]", "result": 25, "unit": "µg/mL"},
      {"measurement": "MIC", "setting": "[28]", "result": 100, "unit": "µg/mL"},
      {"measurement": "MBC", "setting": "[29]", "result": 50, "unit": "µg/mL"},
      {"measurement": "zone of inhibition at 100 µg/disc", "setting": "[30]", "result": 31, "unit": "mm"}
    ]},
    {"smiles": "O=C(NS(=O)(=O)c1c(-c2ccccc2)noc1-c1ccc([N+](=O)[O-])cc1)c1cccs1", "values": [
      {"measurement": "MBC", "setting": "[1]", "result": 200, "unit": "µg/mL"},
      {"measurement": "zone of inhibition at 50 µg/disc", "setting": "[2]", "result": 21, "unit": "mm"},
      {"measurement": "MFC", "setting": "[3]", "result": 12.5, "unit": "µg/mL"},
      {"measurement": "zone of inhibition at 75 µg/disc", "setting": "[4]", "result": 23, "unit": "mm"},
      {"measurement": "zone of inhibition at 75 µg/disc", "setting": "[5]", "result": 28, "unit": "mm"},
      {"measurement": "zone of inhibition at 50 µg/disc", "setting": "[6]", "result": 33, "unit": "mm"},
      {"measurement": "zone of inhibition at 50 µg/disc", "setting": "[7]", "result": 31, "unit": "mm"},
      {"measurement": "MBC", "setting": "[8]", "result": 50, "unit": "µg/mL"},
      {"measurement": "zone of inhibition at 100 µg/disc", "setting": "[9]", "result": 26, "unit": "mm"},
      {"measurement": "zone of inhibition at 100 µg/disc", "setting": "[10]", "result": 30, "unit": "mm"},
      {"measurement": "zone of inhibition at 50 µg/disc", "setting": "[11]", "result": 25, "unit": "mm"},
      {"measurement": "zone of inhibition at 75 µg/disc", "setting": "[12]", "result": 34, "unit": "mm"},
      {"measurement": "zone of inhibition at 100 µg/disc", "setting": "[13]", "result": 38, "unit": "mm"},
      {"measurement": "zone of inhibition at 75 µg/disc", "setting": "[14]", "result": 35, "unit": "mm"},
      {"measurement": "zone of inhibition at 100 µg/disc", "setting": "[15]", "result": 30, "unit": "mm"},
      {"measurement": "MFC", "setting": "[16]", "result": 200, "unit": "µg/mL"},
      {"measurement": "zone of inhibition at 100 µg/disc", "setting": "[17]", "result": 42, "unit": "mm"},
      {"measurement": "MIC", "setting": "[18]", "result": 6.25, "unit": "µg/mL"},
      {"measurement": "zone of inhibition at 75 µg/disc", "setting": "[19]", "result": 28, "unit": "mm"},
      {"measurement": "MBC", "setting": "[20]", "result": 100, "unit": "µg/mL"},
      {"measurement": "MIC", "setting": "[21]", "result": 25, "unit": "µg/mL"},
      {"measurement": "zone of inhibition at 50 µg/disc", "setting": "[22]", "result": 25, "unit": "mm"},
      {"measurement": "zone of inhibition at 50 µg/disc", "setting": "[23]", "result": 34, "unit": "mm"},
      {"measurement": "zone of inhibition at 75 µg/disc", "setting": "[24]", "result": 38, "unit": "mm"},
      {"measurement": "MIC", "setting": "[25]", "result": 6.25, "unit": "µg/mL"},
      {"measurement": "MIC", "setting": "[26]", "result": 50, "unit": "µg/mL"},
      {"measurement": "MIC", "setting": "[27]", "result": 12.5, "unit": "µg/mL"},
      {"measurement": "MIC", "setting": "[28]", "result": 50, "unit": "µg/mL"},
      {"measurement": "MBC", "setting": "[29]", "result": 12.5, "unit": "µg/mL"},
      {"measurement": "zone of inhibition at 100 µg/disc", "setting": "[30]", "result": 36, "unit": "mm"}
    ]}
  ]
}
